Source: US20110112133A1, “DIHYDRO PYRROLOQUINOLINE DERIVATIVES” (Takeda Pharmaceutical Company Limited, priority 2009, published 2011)
Where a name gives a salt, the structure may show the parent alone.

Tests used:
[1] = molecular target: T1, hNK2 receptor (Homo sapiens, UniProt P21452); test: Radioligand receptor binding inhibitory activity using membrane fraction of hNK2 receptor-expressing CHO cell ([125I]-NKA); conditions: for inhibition at 1 µM / inhibition at 0.1 µM / inhibition at 0.01 µM: read-out: hNK2 receptor binding inhibitory activity (inhibitory rate (%))
T1 construct: host or cells: CHO cells
T1 sequence (P21452 1-398): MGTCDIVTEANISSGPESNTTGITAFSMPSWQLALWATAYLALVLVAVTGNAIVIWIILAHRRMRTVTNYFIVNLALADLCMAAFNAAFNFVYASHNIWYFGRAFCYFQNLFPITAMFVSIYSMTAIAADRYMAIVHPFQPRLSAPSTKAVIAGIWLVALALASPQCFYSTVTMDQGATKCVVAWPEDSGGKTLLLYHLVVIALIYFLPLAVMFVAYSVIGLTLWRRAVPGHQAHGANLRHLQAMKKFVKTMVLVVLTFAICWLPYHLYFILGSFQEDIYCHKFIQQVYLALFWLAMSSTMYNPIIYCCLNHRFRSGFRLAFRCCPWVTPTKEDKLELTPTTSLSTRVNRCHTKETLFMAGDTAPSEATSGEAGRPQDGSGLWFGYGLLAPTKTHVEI
Protocol: Radioligand Receptor Binding Inhibitory Activity Using Membrane Fraction of hNK2 Receptor-Expressing CHO Cell
hNK2 receptor-expressing CHO cells (produced by EUROSCREEN) were cultured in a flask placed HAM-F12 medium containing 400 μg/mL Geneticin, 100 U/mL penicillin, 100 μg/mL streptomycin and 10% inactivated serum. The medium was removed and adhered cells were washed with PBS, and PBS containing 5 mM EDTA was added to detach the cells from the flask. The cells were recovered by centrifugation, suspended in suspending buffer A (15 mM Tris-HCl (pH 7.5), 12.5 mM MgCl2, 0.3 mM EDTA, 1 mM EGTA (Ethylene Glycol Bis(beta-aminoethylether)-N,N,N,N-tetraacetic Acid)), disrupted by POLYTRON homogenizer (manufactured by KINEMATICA) and centrifuged at 850×g for 10 min at 4° C. The supernatant was recovered and ultracentrifuged at 142000×g for 60 min at 4° C. The precipitated fraction was suspended in suspending buffer B (7.5 mM Tris-HCl (pH 7.5), 12.5 mM MgCl2, 0.3 mM EDTA, 1 mM EGTA, 250 mM sucrose), and cryopreserved (at −80° C.) as a membrane fraction preparation of hNK2 receptor-expressing CHO cell.
The radioligand receptor binding assay was performed in a 96 well microassay plate format with a final volume of 200 μL.
An assay buffer (50 μL, 50 mM Tris-HCl (pH 7.4), 0.02% bovine serum albumin, 2 μg/mL chymostatin, 40 μg/mL bacitracin, 40 μg/mL APMSF, 3 mM MnCl2) was added to a 96 well microassay plate. Thereto was added 50 μL of the above-mentioned cryopreserved membrane fraction preparation suspended in the assay buffer (20 μg/mL). An assay buffer (50 μL) containing 2% dimethyl sulfoxide was added to examine the total binding, 4 μM unlabeled NKA (produced by Peptide Institute, Inc.) solution (50 μL) diluted with an assay buffer containing 2% dimethyl sulfoxide was added to examine non-specific binding, and a test compound diluted with an assay buffer (50 μL, containing 2% dimethyl sulfoxide) was added. Furthermore, […] [^125I]-NKA (produced by NEN) solution (50 μL) was added to each well.
After reaction at room temperature for 30 min, using a cell harvester (manufactured by PerkinElmer), the reaction was stopped by rapid filtration on a unifilter plate (GF/C) (manufactured by PerkinElmer), which had been immersed in 0.3% aqueous polyethyleneimine solution for one day, and the cells were washed 10 times with 50 mM Tris-HCl (pH 7.4) buffer (250 μL) containing 0.02% bovine serum albumin. The GF/C filter plate was dried and 20 μL of MicroScinti-0 (manufactured by PerkinElmer) was added to each well and the radioactivity was measured by TopCount (manufactured by PerkinElmer).
Specific binding is shown by the value obtained by subtracting non-specific binding from the total binding. The binding inhibitory activity of the test compound is shown by the ratio of the value obtained by subtracting the measured value associated with the addition of the test compound from the total binding, to the value of the specific binding.

Row | hNK2 receptor binding inhibitory activity (inhibitory rate (%)) ([1]; test compound 10^−6 M) [%] | hNK2 receptor binding inhibitory activity (inhibitory rate (%)) ([1]; test compound 10^−7 M) [%] | hNK2 receptor binding inhibitory activity (inhibitory rate (%)) ([1]; test compound 10^−8 M) [%] | inhibition at 1 µM ([1]; test compound 10^−6 M) [%] | inhibition at 0.1 µM ([1]; test compound 10^−7 M) [%] | inhibition at 0.01 µM ([1]; test compound 10^−8 M) [%] | melting point [°C] | SMILES
1 | 100.7 | 100.2 | 98.5 | – | – | – | – | Cc1ccn(-c2ccc(C(=O)N[C@@H]3CCC(F)(F)C[C@@H]3C(=O)N3CCc4c(-c5ccsc5)nc5ccccc5c43)cc2)n1.Cl [Example 8]
2 | – | – | – | 99.4 | 99.4 | 96.1 | – | Cc1ccn(-c2ccc(C(=O)N[C@@H]3CCC(F)(F)C[C@@H]3C(=O)N3CCc4c(-c5ncc[nH]5)nc5ccc(F)cc5c43)cc2)n1 [Example 6, N-[(1R,2S)-4,4-difluoro-2-{[8-fluoro-4-(1H-imidazol-2-yl)-2,3-dihydro-1H-pyrrolo[3,2-c]quinolin-1-yl]carbonyl}cyclohexyl]-4-(3-methyl-1H-pyrazol-1-yl)benzamide hydrochloride]
3 | 99.9 | 99.5 | 92.8 | – | – | – | – | Cc1ccn(-c2ccc(C(=O)N[C@@H]3CCC(F)(F)C[C@@H]3C(=O)N3CCc4c(-c5ccccc5)nc5ccc(F)cc5c43)cc2)n1.Cl [Example 10, N-{(1R,2S)-4,4-difluoro-2-[(8-fluoro-4-phenyl-2,3-dihydro-1H-pyrrolo[3,2-c]quinolin-1-yl)carbonyl]cyclohexyl}-4-(3-methyl-1H-pyrazol-1-yl)benzamide hydrochloride]
4 | – | – | – | 101 | 101 | 99.8 | 232 | Cc1ccn(-c2ccc(C(=O)N[C@@H]3CCC(F)(F)C[C@@H]3C(=O)N3CCc4c(-c5ncc[nH]5)nc5ccccc5c43)cc2)n1.Cl [Example 12, N-[(1R,2S)-4,4-difluoro-2-{[4-(1H-imidazol-2-yl)-2,3-dihydro-1H-pyrrolo[3,2-c]quinolin-1-yl]carbonyl}cyclohexyl]-4-(3-methyl-1H-pyrazol-1-yl)benzamide hydrochloride]
